In brackets after ≈: the same amount, converted by molar mass.
Tests used:
[1] = Lethal dose 50% (inhibition of growth of normal cells); format: cell-based; conditions: monkey; concentration inhibiting 50% of growth of normal VERO cells; no unit in table, test concentrations given in microgrammes/ml; read-out: DL50 (the source's name)
Protocol: On a par ailleurs déterminé la dose léthale 50% (DL50) la dose efficace 90% et 99% (DE90 et DE99) et l'indice thérapeutique 90 et 99 (IT90 et IT99) en utilisant les méthodes suivantes :
Les composés ont été préparés à la dose 1 mg/ml dans unvolume maximal de 0,1 ml de diméthyl- sulfoxyde et addition jusqu'à 12 ml d'un milieu de maintenance M-2. Les dilutions ont été effectuées avec le milieu de maintenance M-2.
La DL50 est la concentration à laquelle 50% de la croissance des cellules normales est inhibée. Pour cette détermination on a utilisé 5.10^5 cellules VERO en suspension dans 10 ml de milieu E199 additionné de 6% de sérum de veau (CS) et de gentamycine(20 microgrammes/ml). Les composés ont été ajoutés pour obtenir des concentrations finales de 200;100;-75;50;25;10;5;3;2;1;0,1 et 0,01 microgrammes/ml.

virus (Polio type I) = experiment: microbe, parasite or virus in culture; format: cell-based; conditions: for EC90 / EC99: Vero; for EC90: read-out: DE90; for EC99: read-out: DE 99; for IT90: therapeutic index = DL50 divided by DE90; for IT99: therapeutic index = DL50 divided by DE99

COc1ccc(-c2oc3c(OC)c(OC)c(OC)c(OC)c3c(=O)c2OC)cc1OC [3,3',4',5,6,7,8-heptaméthoxyflavone]
CC50 [1]: 200 µg/mL (≈ 463 µM)
EC90 (virus (Polio type I)): 20 µg/mL (≈ 46.3 µM)
EC99 (virus (Polio type I)): 25 µg/mL
IT90 (virus (Polio type I)): 10
IT99 (virus (Polio type I)): 8

COc1ccc(-c2oc3cc(OC)c(OC)c(OC)c3c(=O)c2OC)cc1OC [3,3',4',5,6,7-hexaméthoxyflavone]
CC50 [1]: 200 µg/mL (≈ 497 µM)
EC90 (virus (Polio type I)): 100 µg/mL (≈ 249 µM)
EC99 (virus (Polio type I)): 200 µg/mL
IT90 (virus (Polio type I)): 2
IT99 (virus (Polio type I)): 1

COc1ccc(-c2oc3c(OC)c(OC)c(OC)c(O)c3c(=O)c2OC)cc1OC [3,3',4',6,7,8-hexaméthoxy-5-hydroxyflavone]
CC50 [1]: 200 µg/mL (≈ 478 µM)
EC90 (virus (Polio type I)): 20 µg/mL (≈ 47.8 µM)
EC99 (virus (Polio type I)): 25 µg/mL
IT90 (virus (Polio type I)): 10
IT99 (virus (Polio type I)): 8

COc1ccc(-c2oc3cc(O)c(OC)c(O)c3c(=O)c2OC)cc1 [3,4',6-triméthoxy-5,7-dihydroxyflavone]
CC50 [1]: 50 µg/mL (≈ 145 µM)
EC90 (virus (Polio type I)): 1 µg/mL (≈ 2.9 µM)
EC99 (virus (Polio type I)): 10 µg/mL
IT90 (virus (Polio type I)): 50
IT99 (virus (Polio type I)): 5

COc1ccc(-c2oc3ccc(OC)cc3c(=O)c2OC)cc1 [3,4',6-triméthoxyflavone]
CC50 [1]: 100 µg/mL (≈ 320 µM)
EC90 (virus (Polio type I)): 2 µg/mL (≈ 6.4 µM)
EC99 (virus (Polio type I)): 50 µg/mL
IT90 (virus (Polio type I)): 50
IT99 (virus (Polio type I)): 2

COc1ccc(-c2oc3ccc(O)cc3c(=O)c2OC)cc1 [3,4'-diméthoxy-6-hydroxyflavone]
CC50 [1]: 200 µg/mL (≈ 670 µM)
EC90 (virus (Polio type I)): 100 µg/mL (≈ 335 µM)
EC99 (virus (Polio type I)): 200 µg/mL
IT90 (virus (Polio type I)): 2
IT99 (virus (Polio type I)): 1

COc1c(-c2ccc(O)cc2)oc2cccc(OC)c2c1=O [3,5-diméthoxy-4'-hydroxyflavone]
CC50 [1]: 150 µg/mL (≈ 503 µM)
EC90 (virus (Polio type I)): 5 µg/mL (≈ 16.8 µM)
EC99 (virus (Polio type I)): 10 µg/mL
IT90 (virus (Polio type I)): 30
IT99 (virus (Polio type I)): 15

COc1cc2oc(-c3ccc(O)cc3)c(OC)c(=O)c2c(O)c1OC [3,6,7-triméthoxy-4',5-dihydroxyflavone]
CC50 [1]: 100 µg/mL (≈ 290 µM)
EC90 (virus (Polio type I)): 0.5 µg/mL (≈ 1.45 µM)
EC99 (virus (Polio type I)): 5 µg/mL
IT90 (virus (Polio type I)): 200
IT99 (virus (Polio type I)): 20

COc1c(O)cc2oc(-c3ccc(O)cc3)c(OC)c(=O)c2c1O [3,6-diméthoxy-4',5,7-trihydroxyflavone]
CC50 [1]: 20 µg/mL (≈ 60.6 µM)
EC90 (virus (Polio type I)): 0.5 µg/mL (≈ 1.51 µM)
EC99 (virus (Polio type I)): 1 µg/mL
IT90 (virus (Polio type I)): 40
IT99 (virus (Polio type I)): 20

COc1ccc2oc(-c3ccc(O)cc3)c(OC)c(=O)c2c1 [3,6-diméthoxy-4'-hydroxyflavone]
CC50 [1]: 200 µg/mL (≈ 670 µM)
EC90 (virus (Polio type I)): 7 µg/mL (≈ 23.5 µM)
EC99 (virus (Polio type I)): 25 µg/mL
IT90 (virus (Polio type I)): 29
IT99 (virus (Polio type I)): 8

COc1ccc2c(=O)c(OC)c(-c3ccc(O)cc3)oc2c1 [3,7-diméthoxy-4'-hydroxyflavone]
CC50 [1]: 25 µg/mL (≈ 83.8 µM)
EC90 (virus (Polio type I)): 1 µg/mL (≈ 3.35 µM)
EC99 (virus (Polio type I)): 5 µg/mL
IT90 (virus (Polio type I)): 25
IT99 (virus (Polio type I)): 5

COc1c(-c2ccc(O)cc2)oc2c(OC)cccc2c1=O [3,8-diméthoxy-4'-hydroxyflavone]
CC50 [1]: 25 µg/mL (≈ 83.8 µM)
EC90 (virus (Polio type I)): 10 µg/mL (≈ 33.5 µM)
EC99 (virus (Polio type I)): 20 µg/mL
IT90 (virus (Polio type I)): 2,5
IT99 (virus (Polio type I)): 1,2

COc1c(-c2ccc(O)cc2)oc2ccc(O)cc2c1=O [3-méthoxy-4',6-dihydroxyflavone]
CC50 [1]: 3 µg/mL (≈ 10.6 µM)
EC90 (virus (Polio type I)): 0.5 µg/mL (≈ 1.76 µM)
EC99 (virus (Polio type I)): 2 µg/mL
IT90 (virus (Polio type I)): 6
IT99 (virus (Polio type I)): 1,5

COc1c(-c2ccc(OCc3ccccc3)cc2)oc2ccccc2c1=O [3-méthoxy-4'-benzyloxyflavone]
CC50 [1]: 100 µg/mL (≈ 279 µM)
EC90 (virus (Polio type I)): 30 µg/mL (≈ 83.7 µM)
EC99 (virus (Polio type I)): 100 µg/mL
IT90 (virus (Polio type I)): 3,3
IT99 (virus (Polio type I)): 1

COc1c(-c2ccc(Cl)cc2)oc2cc(C)ccc2c1=O [3-méthoxy-4'-chloro-7-méthylflavone]
CC50 [1]: 10 µg/mL (≈ 33.3 µM)
EC90 (virus (Polio type I)): 10 µg/mL (≈ 33.3 µM)
EC99 (virus (Polio type I)): 20 µg/mL
IT90 (virus (Polio type I)): 1
IT99 (virus (Polio type I)): 0.5

COc1c(-c2ccc(O)cc2)oc2ccc(Cl)cc2c1=O [3-méthoxy-4'-hydroxy-6-chloroflavone]
CC50 [1]: 100 µg/mL (≈ 330 µM)
EC90 (virus (Polio type I)): 2 µg/mL (≈ 6.61 µM)
EC99 (virus (Polio type I)): 6 µg/mL
IT90 (virus (Polio type I)): 50
IT99 (virus (Polio type I)): 17

COc1c(-c2ccc(O)cc2)oc2ccc(C)cc2c1=O [3-méthoxy-4'-hydroxy-6-methylflavone]
CC50 [1]: 75 µg/mL (≈ 266 µM)
EC90 (virus (Polio type I)): 1 µg/mL (≈ 3.54 µM)
EC99 (virus (Polio type I)): 5 µg/mL
IT90 (virus (Polio type I)): 75
IT99 (virus (Polio type I)): 15

COc1c(-c2ccc(O)cc2)oc2cc(Cl)ccc2c1=O [3-méthoxy-4'-hydroxy-7-chloroflavone]
CC50 [1]: 100 µg/mL (≈ 330 µM)
EC90 (virus (Polio type I)): 5 µg/mL (≈ 16.5 µM)
EC99 (virus (Polio type I)): 7 µg/mL
IT90 (virus (Polio type I)): 20
IT99 (virus (Polio type I)): 14,3

COc1c(-c2ccc(O)cc2)oc2cc(F)ccc2c1=O [3-méthoxy-4'-hydroxy-7-fluoroflavone]
CC50 [1]: 20 µg/mL (≈ 69.9 µM)
EC90 (virus (Polio type I)): 1 µg/mL (≈ 3.49 µM)
EC99 (virus (Polio type I)): 6 µg/mL
IT90 (virus (Polio type I)): 20
IT99 (virus (Polio type I)): 3,2

COc1c(-c2ccc(O)cc2)oc2cc(C)ccc2c1=O [3-méthoxy-4'-hydroxy-7-méthylflavone]
CC50 [1]: 25 µg/mL (≈ 88.6 µM)
EC90 (virus (Polio type I)): 0.5 µg/mL (≈ 1.77 µM)
EC99 (virus (Polio type I)): 2 µg/mL
IT90 (virus (Polio type I)): 50
IT99 (virus (Polio type I)): 12,5

COc1c(-c2ccc(O)cc2)oc2ccccc2c1=O [3-méthoxy-4'-hydroxyflavone]
CC50 [1]: 10 µg/mL (≈ 37.3 µM)
EC90 (virus (Polio type I)): 3 µg/mL (≈ 11.2 µM)
EC99 (virus (Polio type I)): 6 µg/mL
IT90 (virus (Polio type I)): 3,3
IT99 (virus (Polio type I)): 1.66

Reference: EP0233105A1 (priority 1986, dated 1987)
